Measurements taken from patent publication US20070213339A1 (Bayer Pharmaceuticals Corporation, priority 2004, published 2007).

These compounds were tested on Colo205 human colon carcinoma cell line (assay: In vitro tumor cell proliferation assay (MTS, CellTiter 96 Aqueous One Solution)). Conditions: COLO 205, Colo205 cells, 72 hours compound exposure, MTS absorbance at 490 nm, read-out: IC50 (concentration of test compound required to inhibit proliferation of 50% of the cells).
Assay type: cell-based
Summary of the method: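 Colo205 cells seeded at 2000 cells/well in RPMI-1640 with 10% serum, exposed to compound for 72 h at 37 °C, 5% CO2, in a 5-point dose-response up to 10-20 μM. Viability read by MTS absorbance at 490 nm; IC50 from background-corrected percent inhibition by linear regression.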

Compound	IC50 [nM]
COCCN(C)Cc1ccc(-n2cc(C(=O)O)c(=O)c3cc(F)c(N4CCN(c5ccccn5)CC4)c(Cl)c32)cc1 [Example 55]	500 to 2000
CON(C)Cc1ccc(-n2cc(C(=O)O)c(=O)c3cc(F)c(N4CCN(c5ccc(Cl)cc5)CC4)c(Cl)c32)cc1 [Example 52, 8-chloro-7-[4-(4-chlorophenyl)piperazin-1-yl]-6-fluoro-1-(4-{[methoxy(methyl)amino]methyl}phenyl)-4-oxo-1,4-dihydroquinoline-3-carboxylic acid]	2000 to 20000
COc1c(N2CCN(c3ccccc3[N+](=O)[O-])CC2)c(F)cc2c(=O)c(C(=O)O)cn(-c3ccc(CN(C)C)cc3)c12 [Example 104, 1-{4-[(dimethylamino)methyl]phenyl}-6-fluoro-8-methoxy-7-[4-(2-nitrophenyl)piperazin-1-yl]-4-oxo-1,4-dihydroquinoline-3-carboxylic acid]	2000 to 20000
CCN(CC)Cc1ccc(-n2cc(C(=O)O)c(=O)c3cc(F)c(N4CCN(c5cc(Cl)ccc5C)CC4)c(OC(F)(F)F)c32)cc1 [Example 134, 7-[4-(5-chloro-2-methylphenyl)piperazin-1-yl]-1-{4-[(diethylamino)methyl]phenyl}-6-fluoro-4-oxo-8-(trifluoromethoxy)-1,4-dihydroquinoline-3-carboxylic acid]	500 to 2000
O=C(O)c1cn(-c2ccc(CNC3CCCCC3)cc2)c2c(Cl)c(N3CCN(c4ccccn4)CC3)c(F)cc2c1=O [Example 171, 8-chloro-1-(4-cyclohexylaminomethyl-phenyl)-6-fluoro-4-oxo-7-(4-pyridin-2-yl-piperazin-1-yl)-1,4-dihydroquinoline-3-carboxylic acid]	< 500
COc1c(N2CCN(c3ccc(C(F)(F)F)cc3)CC2)c(F)cc2c(=O)c(C(=O)O)cn(-c3ccc(CN(C)C)cc3)c12 [Example 100, 1-{4-[(dimethylamino)methyl]phenyl}-6-fluoro-8-methoxy-4-oxo-7-{4-[4-(trifluoromethyl)phenyl]piperazin-1-yl}-1,4-dihydroquinoline-3-carboxylic acid]	2000 to 20000
O=C(O)c1cn(-c2ccc(CNC3CCCC3Cl)cc2)c2c(Cl)c(N3CCN(c4ccccn4)CC3)c(F)cc2c1=O (stereo not drawn) [Example 173, 8-chloro-1-{4-[(2-chloro-cyclopentylamino)-methyl]-phenyl}-6-fluoro-4-oxo-7-(4-pyridin-2-yl-piperazine-1-yl)-1,4-dihydro-quinoline-3-carboxylic acid]	500 to 2000
CN(C)CCc1ccc(-n2cc(C(=O)O)c(=O)c3cc(F)c(N4CCN(c5ncccn5)CC4)c(Cl)c32)cc1 [Example 71, 8-chloro-1-{4-[2-(dimethylamino)ethyl]phenyl}-6-fluoro-4-oxo-7-(4-pyrimidin-2-ylpiperazin-1-yl)-1,4-dihydroquinoline-3-carboxylic acid]	2000 to 20000
O=C(O)c1cn(-c2ccc(CN3CCCC3)cc2)c2c(OC(F)(F)Cl)c(N3CCN(c4ccc(F)cc4)CC3)c(F)cc2c1=O [Example 147, 8-[chloro(difluoro)methoxy]-6-fluoro-7-[4-(4-fluorophenyl)piperazin-1-yl]-4-oxo-1-[4-(pyrrolidin-1-ylmethyl)phenyl]1,4-dihydroquinoline-3-carboxylic acid]	< 500
CCN(CC)Cc1ccc(-n2cc(C(=O)O)c(=O)c3cc(F)c(N4CCN(c5ccc(C#N)cc5)CC4)c(OC)c32)cc1 [Example 108, 7-[4-(4-cyanophenyl)piperazin-1-yl]-1-{4-[(diethylamino)methyl]phenyl}-6-fluoro-8-methoxy-4-oxo-1,4-dihydroquinoline-3-carboxylic acid]	< 500
O=C(O)c1cn(-c2ccc(CNC3CC3)cc2)c2c(Cl)c(N3CCN(c4ncccn4)CC3)c(F)cc2c1=O [Example 60, 8-chloro-1-{4-[(cyclopropylamino)methyl]-phenyl}-6-fluoro-4-oxo-7-(4-pyrimidin-2-ylpiperazin-1-yl)-1,4-dihydroquinoline-3-carboxylic acid]	< 500
O=C(O)c1cn(-c2ccc(CN3CCCC3)cc2)c2c(Cl)c(N3CCN(c4ccc(Cl)cc4)CC3)c(F)cc2c1=O [Example 3, 8-chloro-6-fluoro-7-[4-(4-chlorophenyl)-piperazin-1-yl]-4-oxo-1-[4-(pyrrolidin-1-ylmethyl)phenyl]-1,4-dihydroquinoline-3-carboxylic acid]	500 to 2000
CCN(CC)Cc1ccc(-n2cc(C(=O)O)c(=O)c3cc(F)c(N4CCN(c5ccccc5[N+](=O)[O-])CC4)c(OC)c32)cc1 [Example 107, 1-{4-[(diethylamino)methyl]phenyl}-6-fluoro-8-methoxy-7-[4-(2-nitrophenyl)piperazin-1-yl]-4-oxo-1,4-dihydroquinoline-3-carboxylic acid]	500 to 2000
N#Cc1cccnc1N1CCN(c2c(F)cc3c(=O)c(C(=O)O)cn(-c4ccc(CN5CCCC5)c(F)c4)c3c2Cl)CC1 [Example 184, 8-chloro-7-[4-(3-cyanopyridin-2-yl)-piperazine-1-yl]-6-fluoro-1-(3-fluoro-4-pyrrolidin-1-ylmethyl-phenyl)-4-oxo-1,4-dihydroquinoline-3-carboxylic acid]	< 500
COc1c(N2CCN(c3ccccc3C#N)CC2)c(F)cc2c(=O)c(C(=O)O)cn(-c3ccc(CN4CCCC4)cc3)c12 [Example 81, 7-[4-(2-cyanophenyl)piperazin-1-yl]-6-fluoro-8-methoxy-4-oxo-1-[4-(pyrrolidin-1-ylmethyl)phenyl]-1,4-dihydroquinoline-3-carboxylic acid]	500 to 2000
N#Cc1ccc(N2CCN(c3c(F)cc4c(=O)c(C(=O)O)cn(-c5ccc(CN6CCCC6)cc5F)c4c3Cl)CC2)cc1 [Example 48, 8-chloro-7-[4-(4-cyanophenyl)piperazin-1-yl]-6-fluoro-1-[2-fluoro-4-(pyrrolidin-1-ylmethyl)phenyl]-4-oxo-1,4-dihydroquinoline-3-carboxylic acid]	< 500

More lines, now with the values ahead:

IC50 [nM]	Compound
< 500	CCN(CC)Cc1ccc(-n2cc(C(=O)O)c(=O)c3cc(F)c(N4CCN(c5ccccc5F)CC4)c(OC)c32)cc1 [Example 114, 1-{4-[(diethylamino)methyl]phenyl}-6-fluoro-7-[4-(2-fluorophenyl)piperazin-1-yl]-8-methoxy-4-oxo-1,4-dihydroquinoline-3-carboxylic acid]
< 500	COc1c(N2CCN(c3ccccn3)CC2)c(F)cc2c(=O)c(C(=O)O)cn(-c3ccc(CN4CCCCC4)cc3)c12 [Example 194, 6-fluoro-8-methoxy-4-oxo-1-(4-piperidin-1-ylmethyl-phenyl)-7-(4-pyridin-2-yl-piperazine-1-yl]-1,4-dihydroquinoline-3-carboxylic acid]
< 500	O=C(O)c1cn(-c2ccc(CNC3CCCCC3)cc2)c2c(Cl)c(N3CCN(c4ncccn4)CC3)c(F)cc2c1=O [Example 189, 8-chloro-1-(4-cyclohexylaminomethyl-phenyl)-6-fluoro-4-oxo-7-(4-pyrimidin-2-yl-piperazin-1-yl)-1,4-dihydroquinoline-3-carboxylic acid]
< 500	COc1c(N2CCN(c3ccccn3)CC2)c(F)cc2c(=O)c(C(=O)O)cn(-c3ccc(CN(C)C)cc3)c12 [Example 92, 1-{4-[(dimethylamino)methyl]phenyl}-6-fluoro-8-methoxy-4-oxo-7-(4-pyridin-2-ylpiperazin-1-yl)-1,4-dihydroquinoline-3-carboxylic acid]
< 500	CN(Cc1ccc(-n2cc(C(=O)O)c(=O)c3cc(F)c(N4CCN(c5ccccn5)CC4)c(Cl)c32)cc1)C1CCCCC1 [Example 61, 8-chloro-1-(4-{[cyclohexyl(methyl)amino]-methyl}phenyl)-6-fluoro-4-oxo-7-(4-pyridin-2-ylpiperazin-1-yl)-1,4-dihydroquinoline-3-carboxylic acid]
< 500	O=C(O)c1cn(-c2ccc(CN3CCCC3)cc2)c2c(OC(F)(F)F)c(N3CCN(c4cccc(Cl)c4)CC3)c(F)cc2c1=O [Example 119, 7-[4-(3-chlorophenyl)piperazin-1-yl]-6-fluoro-4-oxo-1-[4-(pyrrolidin-1-ylmethyl)phenyl]-8-(trifluoromethoxy)-1,4-dihydroquinoline-3-carboxylic acid]
< 500	COc1cc(CN2CCCC2)ccc1-n1cc(C(=O)O)c(=O)c2cc(F)c(N3CCN(c4ccc(F)cc4)CC3)c(Cl)c21 [Example 176, 8-chloro-6-fluoro-7-[4-(4-fluorophenyl)-piperazine-1-yl]-1-(2-methoxy-4-pyrrolidin-1-ylmethyl-phenyl)-4-oxo-1,4-dihydroquinoline-3-carboxylic acid]
< 500	O=C(O)c1cn(-c2ccc(CN3CCCC3)cc2)c2c(Cl)c(N3CCN(c4ccc(F)cc4)CC3)c(F)cc2c1=O [Example 2, 8-chloro-6-fluoro-7-[4-(4-fluorophenyl)-piperazin-1-yl]-4-oxo-1-[4-(pyrrolidin-1-ylmethyl)phenyl]-1,4-dihydroquinoline-3-carboxylic acid]
< 500	O=C(O)c1cn(-c2ccc(CN3CCCC3)cc2)c2c(OC(F)(F)F)c(N3CCN(c4ccc(F)cc4)CC3)c(F)cc2c1=O [Example 121, 6-fluoro-7-[4-(4-fluorophenyl)piperazin-1-yl]-4-oxo-1-[4-(pyrrolidin-1-ylmethyl)phenyl]-8-(trifluoromethoxy)-1,4-dihydroquinoline-3-carboxylic acid]
< 500	CCN(C)Cc1ccc(-n2cc(C(=O)O)c(=O)c3cc(F)c(N4CCN(c5ccc(F)cc5)CC4)c(OC(F)(F)Cl)c32)cc1 [Example 167, 8-[chloro(difluoro)methoxy]-1-(4-{[ethyl(methyl)amino]methyl}phenyl)-6-fluoro-7-[4-(4-fluorophenyl)piperazin-1-yl]-4-oxo-1,4-dihydroquinoline-3-carboxylic acid]
< 500	CN(C)Cc1ccc(-n2cc(C(=O)O)c(=O)c3cc(F)c(N4CCN(c5ccccn5)CC4)c(OC(F)(F)Cl)c32)cc1 [Example 154, 8-[chloro(difluoro)methoxy]-1-{4-[(dimethylamino)methyl]phenyl}-6-fluoro-4-oxo-7-(4-pyridin-2-ylpiperazin-1-yl)-1,4-dihydroquinoline-3-carboxylic acid]
